From PubChem BioAssay (NCI)
Where “and” joins values, the source holds several entries; their conditions need not be identical. Identical values can stand only once.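 Cultured in 96-well plates, cells were exposed to test compound for 48 hours across five concentrations. GI50 marks 50% less growth. At the TGI there is no net growth.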

Assays:
Assay in all cases: NCI-60 cell line screen, 48 h
[1] = test system: A498 renal
[2] = test system: ACHN renal
[3] = test system: DU-145 prostate
[4] = test system: EKVX NSCLC
[5] = test system: MALME-3M melanoma
[6] = test system: MDA-MB-435
[7] = test system: NCI-H23 lung
[8] = test system: NCI/ADR-RES ovarian
[9] = test system: RPMI-8226 leukemia
[10] = test system: SK-MEL-2 melanoma
[11] = test system: SK-MEL-5 melanoma
[12] = test system: SN12C renal
[13] = test system: SNB-75 CNS
[14] = test system: SW-620 colon
[15] = test system: UACC-62 melanoma

Row | Compound | TGI [1] | TGI [2] | TGI [3] | TGI [4] | TGI [5] | TGI [6] | TGI [7] | TGI [8] | TGI [9] | TGI [10] | TGI [11] | TGI [12] | TGI [13] | TGI [14] | TGI [15] | GI50 [13]
1 | CCCCCCOc1ccc(C(=O)NO)cc1 | 28.1 µM | 21.5 µM | 18.2 µM | 52.7 µM | 34.4 µM | 38.5 µM | 23 µM | 18.5 µM | 29.8 µM | 39 µM | > 58.2 µM | 19.5 µM | > 67.2 µM | 35.8 µM | 20.6 µM | 
2 | COCCCNC(=O)C1=C(C)NC(C)=C(C(=O)NCCCOC)C1 | > 100 µM | > 100 µM | > 100 µM | 40.5 µM | 41.2 µM | > 100 µM | > 100 µM | > 100 µM | > 100 µM | > 100 µM | > 100 µM | > 100 µM | > 100 µM | > 100 µM | > 100 µM | 
3 | COC(=O)C1OC(O[C@H]2CC[C@]3(C)[C@H]4CC=C5[C@@H]6CC(C)(C)CC[C@]6(C(=O)OC6OCC(O)C(O)C6OC6OC(C)C(OC7OCC(O)C(OC8OCC(O)C(O)C8O)C7O)C(OC7OCC(O)C(O)C7O)C6O)CC[C@@]5(C)[C@]4(C)CC[C@H]3C2(C)C)C(O)C(OC2OCC(O)C(O)C2O)C1O (stereo partly specified) | 3.55 µM and 4.34 µM | 22.1 µM and 15.9 µM | > 70.6 µM and 37.2 µM | 16.3 µM and 14.8 µM | 19.4 µM and 18.3 µM | 4.13 µM and 4.42 µM | > 36.7 µM and 16.2 µM | > 100 µM and 21 µM | 9 µM and 15.6 µM | 9.16 µM and 7.73 µM | 7 µM and 12.1 µM | 5.4 µM and 5.69 µM | 25.3 µM and 26.3 µM | > 100 µM and 24 µM | 8.36 µM and 13.7 µM | 5.19 µM and 11.7 µM
4 | CCCCC(Sc1cc(Cl)c(C)cc1S(=O)(=O)Nc1n[nH]c(N)n1)C(=O)OC (stereo unspecified) | > 10 µM | > 10 µM | > 10 µM | > 10 µM | > 10 µM | > 10 µM | > 10 µM | > 10 µM | > 10 µM | > 10 µM | > 10 µM | > 10 µM | > 10 µM | > 10 µM | > 10 µM | 
5 | COc1cc2cccc(N)c2cc1OC | > 100 µM | > 100 µM | > 100 µM | > 100 µM | > 100 µM | > 100 µM | > 100 µM | > 100 µM | > 100 µM | > 100 µM | > 100 µM | > 100 µM | > 100 µM | > 100 µM | > 100 µM | 
6 | COc1ccc(C(CC(=O)C(C)(C)CN2CCCCC2)SCCS(=O)(=O)O)cc1 (stereo unspecified) | 74.3 µM | > 100 µM | > 100 µM | > 100 µM | 84.8 µM | 52.3 µM | 98.7 µM | > 100 µM | 63.9 µM | > 100 µM | 62.5 µM | > 100 µM | 91.9 µM | > 100 µM | > 100 µM | 
7 | NCCN1C(=O)CN=C(c2ccc(Cl)cc2)c2cc(Cl)ccc21 | 33.8 µM | 33 µM | 34.8 µM | 84.5 µM | 29.7 µM | 28.3 µM | 37.1 µM | 32.8 µM | 36.4 µM | 31.8 µM | 31.4 µM | 62.9 µM | 30.7 µM | 43 µM | 32.2 µM | 
8 | CCOC(=O)CSc1nnc2cc(CN3CCCC3)c(-c3ccc(Cl)cc3)nn12 | > 100 µM | > 100 µM | > 100 µM | > 100 µM | > 100 µM | > 100 µM | > 100 µM | > 100 µM | > 100 µM | > 100 µM | > 100 µM | > 100 µM | > 100 µM | > 100 µM | > 100 µM | 
